According to patent US5114934A, “Tricyclic pyridone derivatives” (Hoffman-La Roche, Inc., priority 1985, dated 1992):

Experiments:
[1] = acute toxicity (LD50), single oral administration to mice; conditions: mouse, in vivo
Experimental: (§1) In this animal experiment the compound under investigation is administered orally to mice and 30 minutes later there are administered intraperitoneally 120 mg/kg of pentetrazole, which causes emprosthotonus and tonic stretchings of the fore and/or hind limbs in unprotected animals 1-4 minutes after the injection. 10 experimental animals are used per dosage of test substance. After counting the protected experimental animals the ED50 is determined according to the Probit method. The ED50 is that dosage which protects 50% of the experimental animals from the spasmodic seizures caused by pentetrazole. The results which have been obtained with representative members of the class of compound defined by formula I in the experiment described previously are compiled in the following Table. Moreover, the Table contains data concerning the acute toxicity (LD50) of some of these compounds in mg/kg in the case of single oral administration to mice.

[2] = tested on: spasmodic seizures caused by pentetrazole; experiment: antipentetrazole test (mice, oral); type: in vivo; conditions: Mus musculus, 0.5 h, 30 minutes before 120 mg/kg pentetrazole i.p., dosage protecting 50% of animals, Probit method
Experimental: As mentioned earlier, the compounds of formula I have valuable pharmacological properties. In particular they display pronounced muscle relaxant, sedative-hypnotic, anticonvulsive and/or anxiolytic properties and have only a low toxicity.
as §1

SMILES | LD50 [1] [mg/kg] | ED50 [2] [mg/kg]
COC1CN(C(=O)c2cc(-c3ccccc3)c(=O)n3ncc4ccccc4c23)C1 [Compound A, 3-methoxy-1-[(4-oxo-3-phenyl-4H-pyrido-[2,1-a]phthalazin-1-yl)carbonyl]azetidine] | 1500 | 1.1
COC1CN(C(=O)c2cc(-c3ccccc3)c(=O)n3ncc4ccc(Cl)cc4c23)C1 [Compound F, 1-[(10-Chloro-4-oxo-3-phenyl-4H-pyrido[2,1-a]-phthalazin-1-yl)carbonyl]-3-methoxyazetidine] | 5000 | 0.79
CN(C)C(=O)c1cc(-c2ccccc2)c(=O)n2ncc3ccc(Cl)cc3c12 [Compound G, N,N-Dimethyl-10-chloro-4-oxo-3-phenyl-4H-pyrido[2,1-a]phthalazine-1-carboxamide] | 5000 | 0.08
CCN(CC)C(=O)c1cc(-c2ccccc2)c(=O)n2ncc3ccc(Cl)cc3c12 [Compound H, N,N-Diethyl-10-chloro-4-oxo-3-phenyl-4H-pyrido[2,1-a]phthalazine-1-carboxamide] | > 4000 | 0.66
COC1CN(C(=O)c2cc(-c3ccccc3)c(=O)n3ncc4ccsc4c23)C1 [Compound M, 3-Methoxy-1-[(7-oxo-8-phenyl-7H-pyrido-[1,2-b]thieno[2,3-d]pyridazin-10-yl)carbonyl]-azetidine] | 5000 | 0.83
